PMC7718255, “Structural characterization and in vitro lipid binding studies of non-specific lipid transfer protein 1 (nsLTP1) from fennel (Foeniculum vulgare) seeds” (Scientific Reports, 2020)

Target: T1, fennel nsLTP1 (Anethum foeniculum, UniProt C0HLP9)
T1 construct: native mature protein purified from seeds (gel filtration, RP-HPLC); 91 residues, 9433 Da, monomer
T1 sequence (C0HLP9 1-91): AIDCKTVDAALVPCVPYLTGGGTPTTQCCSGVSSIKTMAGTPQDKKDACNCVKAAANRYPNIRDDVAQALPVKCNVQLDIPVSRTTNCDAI
Test: TNS fluorescence displacement
Type: binding
Conditions: 3.5 µM TNS, 4 µM nsLTP1, fatty acid 5-20 µM; 175 mM mannitol, 0.5 mM K2SO4, 0.5 mM CaCl2, 5 mM MES pH 7.0, 25 °C; competitive with TNS

| % of the control fluorescence (nsLTP1-TNS complex) | Structure (SMILES) |
| --- | --- |
| 4–40% | CCCCC/C=C\C/C=C\CCCCCCCC(=O)O [linoleic acid, cis, cis-9,12-Octadecadienoic acid] |
| 7–59% | CC/C=C\C/C=C\C/C=C\CCCCCCCC(=O)O [linolenic acid, all-cis-9,12,15-octadecatrienoic acid] |
| 40–69% | CCCCCCCCCCCCCCCC(=O)O [palmitic acid] |
| 21–59% | CCCCCCCCCCCCCCCCCC(=O)O [stearic acid] |
